For this test, the target named is alanyl aminopeptidases (APN) (Homo sapiens, UniProt P15144). Description: Inhibition of alanyl aminopeptidase enzymatic activity, fluorogenic substrate (Ala)2-rhodamine 110. It is filed as biochemical. How it is done: The inhibition characteristics measured are referred to as IC-50 values or ID50 values (the latter marked with “*”) for said enzyme. The enzymatic activity was determined by means of the fluorogenic substrate/product (Ala)2-rhodamine 110.

The mark [1] stands for this setting: Table 3, unstarred values, read-out: IC50APN.
The mark [2] stands for this setting: Table 3, starred values = ID50, read-out: ID50 APN (values marked with *).

Read-outs that look alike come from different tables or passages of the source.

Chain of alanyl aminopeptidases (APN) (P15144 whole entry, species assumed): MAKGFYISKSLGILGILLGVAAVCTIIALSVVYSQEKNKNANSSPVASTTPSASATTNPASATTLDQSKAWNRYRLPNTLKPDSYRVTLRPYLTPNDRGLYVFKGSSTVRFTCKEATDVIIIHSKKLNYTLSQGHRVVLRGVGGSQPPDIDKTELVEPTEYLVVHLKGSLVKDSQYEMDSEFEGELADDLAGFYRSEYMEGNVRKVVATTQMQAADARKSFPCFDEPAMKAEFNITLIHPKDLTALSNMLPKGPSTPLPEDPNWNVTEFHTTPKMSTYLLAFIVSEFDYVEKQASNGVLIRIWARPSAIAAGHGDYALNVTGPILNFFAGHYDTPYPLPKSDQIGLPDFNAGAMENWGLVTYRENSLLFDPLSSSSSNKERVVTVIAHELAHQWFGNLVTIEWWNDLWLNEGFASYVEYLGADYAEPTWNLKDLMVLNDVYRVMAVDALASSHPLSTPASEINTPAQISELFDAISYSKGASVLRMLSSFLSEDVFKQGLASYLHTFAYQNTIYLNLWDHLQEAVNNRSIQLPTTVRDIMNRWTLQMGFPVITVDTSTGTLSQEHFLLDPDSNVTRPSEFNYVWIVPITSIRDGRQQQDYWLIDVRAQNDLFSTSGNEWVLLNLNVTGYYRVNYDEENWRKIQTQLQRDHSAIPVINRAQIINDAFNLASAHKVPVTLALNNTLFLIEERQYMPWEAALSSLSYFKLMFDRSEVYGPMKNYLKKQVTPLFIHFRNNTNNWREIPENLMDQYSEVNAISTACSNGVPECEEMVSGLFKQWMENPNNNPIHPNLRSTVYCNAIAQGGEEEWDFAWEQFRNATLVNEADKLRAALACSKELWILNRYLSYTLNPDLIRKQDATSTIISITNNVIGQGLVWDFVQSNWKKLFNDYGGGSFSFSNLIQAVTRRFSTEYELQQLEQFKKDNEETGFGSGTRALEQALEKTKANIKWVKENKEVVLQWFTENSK

`O=[N+]([O-])c1ncn(CCBr)n1` [A3.235]: under setting [1], the IC50 amounted to 41.1 µM. With `COc1ccc(C(=O)/C=C/c2ccc(-c3ccccc3)o2)cc1` [A3.236], under setting [1], the IC50 amounted to 41.2 µM. Take `COc1ccc(OC)c(-c2cc(C(=O)N/N=C/c3ccco3)[nH]n2)c1` [A3.237]: the IC50 under setting [1] came out at 43.2 µM. As to `O=C(Cn1cnc2ccccc21)N/N=C/c1ccco1` [A3.238], the IC50 under setting [1] stood at 43.3 µM. `COC(=O)C(NC(=O)c1ccccc1)(Nc1sc2c(c1C#N)CCC(C(C)(C)C)C2)C(F)(F)F` (stereo not drawn) [A3.239]: the IC50 under setting [1] was 43.6 µM.

Take `O=C(/C=C/c1ccco1)Nc1cccc(C(=O)O)c1` [A3.240]: the IC50 under setting [1] turned out to be 44.2 µM. Still for that read-out and setting: the same measure for `Cc1ccc(/C=N/NC(=O)c2ccc(N3CCCC3=O)cc2)o1` [A3.241]: 44.2 µM. As to `O=C(N/N=C1/C(=O)Nc2ccc(F)cc21)/C(=C/c1ccccc1)NC(=O)c1ccccc1` [A3.242], the IC50 under setting [1] amounted to 44.2 µM. On the same count and under the same terms, for `COc1ccccc1C(=O)N/N=C/c1ccco1` [A3.243] the value was 44.7 µM. Take `CC1CCN(C(=O)/C(=C\c2ccco2)NC(=O)c2ccccc2)CC1` [A3.244]: the IC50 under setting [1] came to 45 µM. As for `Cc1ccc(/C=C/C(=O)Nc2ccccc2C(N)=O)o1` [A3.245], the IC50 under setting [1] stood at 45 µM. Regarding `Cc1ccccc1C(=O)Nc1ccc(C(=O)N/N=C/c2ccco2)cc1` [A3.246], the IC50 under setting [1] is 45.4 µM. Turning to `O=C(N/N=C/c1cccc([N+](=O)[O-])c1)c1ccco1` [A3.247], the IC50 under setting [1] amounted to 45.4 µM.

On to `CC(C)Oc1ccc(Br)cc1C(=O)N/N=C/c1ccco1` [A3.248], for which, under setting [1], the IC50 is 46.6 µM. As for `Nc1nonc1-n1nnc(C(=O)N/N=C/c2ccco2)c1-c1ccccc1` [A3.249], the IC50 under setting [1] is 46.6 µM. Turning to `CCn1c(/C=C/c2ccco2)nc2ccccc21` [A3.250], the IC50 under setting [1] was determined as 46.6 µM. Same read-out and setting: for `COc1ccc(N(C(C)C(=O)N/N=C/c2ccco2)S(C)(=O)=O)cc1` (stereo not drawn) [A3.251] the value was 47 µM.

Take `CC1=C(C#N)C(=O)N(CC(C)O)C(=O)/C1=C/c1ccc(-c2ccc(Br)cc2)o1` (stereo not drawn) [A3.252]: the IC50 under setting [2] was determined as 47.2 µM. Turning to `O=C(COc1ccc2ccccc2c1Br)N/N=C/c1ccco1` [A3.253], under setting [1], the IC50 stood at 47.3 µM.

Consider `O=C(O)CC1S/C(=N/N=C/c2ccco2)NC1=O` (stereo not drawn) [A3.254], for which the IC50 under setting [2] is 48.1 µM. On to `Cc1cc(C(=O)N/N=C/c2ccco2)[nH]n1` [A3.255], for which the IC50 under setting [1] turned out to be 48.2 µM. Turning to `CSCCC(Nc1ncnc2c1oc1ccccc12)C(=O)O` (stereo not drawn) [A3.256], under setting [1], the IC50 was 48.4 µM.

Consider `CCOC(=O)C(NC(=O)c1ccc(OC)cc1)(N1CCCC1=O)C(F)(F)F` (stereo not drawn) [A3.257], for which the IC50 under setting [1] turned out to be 48.7 µM. `O=C(C[N+](=O)[O-])C1=CC2OC=CC2N1` (stereo not drawn) [A3.258]: the IC50 under setting [1] was found to be 49.5 µM. In the case of `O=C(CNC(=O)c1ccccc1)N/N=C/c1ccco1` [A3.259], the IC50 under setting [2] was found to be 49.4 µM. `CCOC(=O)c1cc(Br)ccc1-c1ccc(/C=C2\C(=O)N=C(O)C(C#N)=C2C)o1` [A3.260]: the IC50 under setting [1] is 49.9 µM.

For `NC(=S)N/N=C/c1ccco1` [A3.261], under setting [1], the IC50 turned out to be 50 µM. On to `CCOC(=O)c1ncn(C)c1N` [A3.262], for which the IC50 under setting [1] was found to be 50.1 µM. For `Cc1ccc(/C=N/NC(=O)c2cc(C)oc2C)o1` [A3.263], the IC50 under setting [1] turned out to be 50.2 µM.

`CCCCCCCC(=O)N/N=C/c1ccco1` [A3.264]: the IC50 under setting [1] stood at 50.3 µM. Take `Cc1ccc(/C=N\NC(=O)Cc2cccs2)o1` [A3.265]: under setting [1], the IC50 was found to be 51.1 µM. In the case of `CC1CCc2c(sc(NC(=O)C(C(F)(F)F)C(F)(F)F)c2C#N)C1` (stereo not drawn) [A3.266], under setting [1], the IC50 is 51.3 µM.

On to `Cc1ccc(Cn2c(SCCC(=O)O)nc3c2c(=O)[nH]c(=O)n3C)cc1` [A3.267], for which the IC50 under setting [2] worked out at 53.2 µM. Take `CCOC(=O)c1cc(-c2ccc(/C=C3/C(=O)NC(=O)C(C#N)=C3C)o2)ccc1Cl` [A3.268]: under setting [1], the IC50 was 52.1 µM. The same measure, in the same setting: the same measure for `CC(/C=C/c1ccco1)=N\NC(=O)COc1ccc(C(C)(C)C)cc1` [A3.269]: 50 µM; for `CCCOC(=O)c1cc(-c2ccc(/C=C3\C(=O)N(CCO)C(=O)C(C#N)=C3C)o2)ccc1Cl` [A3.270]: 54 µM; for `O=C(N/N=C/c1cc(Br)ccc1OC(=O)c1ccc([N+](=O)[O-])cc1)/C(=C\c1ccc2c(c1)OCO2)NC(=O)c1ccccc1` [A3.271]: 54.2 µM.

Take `CC(=O)c1ccc(NC(=O)/C=C/c2ccc(C)o2)cc1` [A3.272]: the IC50 under setting [1] was found to be 54.4 µM. `Cc1ccc(/C=C(\NC(=O)c2ccccc2)C(=O)NCCN2CCOCC2)o1` [A3.273]: the IC50 under setting [2] is 55 µM. Regarding `O=C(CNS(=O)(=O)c1ccc2c(c1)OCCO2)N/N=C/c1ccco1` [A3.274], the IC50 under setting [1] was determined as 55.6 µM. In the case of `O=C(NCCc1ccccc1)/C(=C\c1ccco1)NC(=O)c1ccccc1` [A3.275], under setting [1], the IC50 came out at 55.8 µM. Same read-out and setting: the same measure for `COc1ccccc1NC(=O)/C=C\c1ccco1` [A3.276]: 56.4 µM; for `COc1ccc(OC)c(NC(=O)/C=C/c2ccc(C)o2)c1` [A3.277]: 56.8 µM; for `C/C(=N\NC(=O)c1cc(-c2ccccc2)n[nH]1)c1ccco1` [A3.278]: 58.3 µM. Still for that read-out and setting: for `CCOc1ccccc1NC(=O)c1c(NCc2cccc(OC)c2)sc2c1CCC2` [A3.279] the value was 58.4 µM; for `O=C(CNC(=O)c1ccccc1F)N/N=C/c1ccc([N+](=O)[O-])o1` [A3.280], 60 µM; for `O=C(Nc1ccccc1F)c1ccc([N+](=O)[O-])o1` [A3.281], 62.4 µM. For `O=C(N/N=C/C=C\c1ccco1)c1cccs1` [A3.282], under setting [1], the IC50 amounted to 62.7 µM. In the case of `O=C(N/N=C/c1ccco1)c1cccc(Br)c1` [A3.283], under setting [1], the IC50 stood at 62.7 µM. Same read-out and setting: the same measure for `Cc1ccc(/C=N/NC(=O)COc2cccc(Cl)c2)o1` [A3.284]: 62.7 µM. With `CC(=O)Nc1cccc(C(=O)N/N=C/c2ccc(C)o2)c1` [A3.285], under setting [2], the IC50 amounted to 63.1 µM. As for `O=[N+]([O-])c1ccc(C2OCN3COCC23)cc1` (stereo not drawn) [A3.287], the IC50 under setting [1] amounted to 64.5 µM.

Turning to `COc1ccc(C(=O)NCC(=O)N/N=C/c2ccco2)cc1OC` [A3.288], the IC50 under setting [2] was determined as 64.9 µM.

With `O=c1cc(CSc2nnc(-c3ccco3)c(-c3ccco3)n2)c2ccccc2[nH]1` [A3.289], the IC50 under setting [2] came to 65.1 µM. Consider `Cc1nc(NC(C)C(=O)O)c2nc(C)oc2n1` (stereo not drawn) [A3.290], for which the IC50 under setting [1] was 65.8 µM. Consider `COc1ccc(CSCC(=O)N/N=C/c2ccco2)cc1` [A3.291], for which the IC50 under setting [2] was determined as 66 µM.

Turning to `O=C1C(Cc2ccc(O)cc2)NC(=S)N1c1ccccc1` (stereo not drawn) [A3.292], the IC50 under setting [1] came to 66.6 µM. As to `Cc1cccc(C(=O)Nc2ccc(C(=O)N/N=C/c3ccco3)cc2)c1` [A3.293], under setting [2], the IC50 was found to be 67.1 µM.

As to `CC(=O)C1C(c2ccc(N(C)C)cc2)C2C(=O)N(C3CCCCC3)C(=O)N2C1c1sccc1C` (stereo not drawn) [A3.294], under setting [1], the IC50 was 68 µM.

As to `O=C1C(=Cc2ccc([N+](=O)[O-])o2)C(=O)c2ccccc21` [A3.295], the IC50 under setting [1] is 68 µM. On to `O=C(N/N=C/c1ccco1)c1ccc(F)cc1` [A3.296], for which, under setting [1], the IC50 stood at 68.9 µM.

Turning to `Cc1ccc(C(=O)N/C(=C\c2ccco2)C(=O)N2CCSCC2)cc1C` [A3.297], the IC50 under setting [1] amounted to 68.9 µM.

As for `Cc1ccc(S(=O)(=O)N2CCC(C(=O)N/N=C/c3ccco3)CC2)cc1` [A3.298], the IC50 under setting [1] was determined as 69.3 µM. Consider `N#Cc1c(NC(=O)C(C(F)(F)F)C(F)(F)F)sc2c1CCCC2` [A3.299], for which the IC50 under setting [1] stood at 71.4 µM. As to `O=C(Cc1ccccc1)NCC(=O)N/N=C/c1ccco1` [A3.300], the IC50 under setting [2] turned out to be 73.1 µM. For the molecule `O=C(CCc1ccccc1)N/N=C/c1ccco1` [A3.302], under setting [1], the IC50 came to 74.7 µM.

Turning to `O=C(N/N=C/c1ccco1)c1cc(-c2ccccc2Cl)n[nH]1` [A3.303], under setting [2], the IC50 amounted to 75.8 µM. As for `Oc1ccc(Cl)cc1/N=C/c1ccc(-c2ccc(F)cc2)o1` [A3.305], the IC50 under setting [1] was found to be 77.3 µM. Turning to `Cn1c(=O)c2c(ncn2CC(=O)N/N=C/C=C\c2ccco2)n(C)c1=O` [A3.307], the IC50 under setting [2] was 79.8 µM. Take `Cc1ccc(OCC(=O)N/N=C\c2ccco2)c(C)c1` [A3.309]: the IC50 under setting [2] was 81.8 µM.

With `O=C(CCn1nnc2ccccc21)N/N=C/c1ccco1` [A3.310], the IC50 under setting [1] was 82.9 µM.

Take `O=C(CCNC(=O)c1ccccc1Br)N/N=C/c1ccco1` [A3.311]: the IC50 under setting [2] stood at 85.8 µM.

As for `O=C(COc1ccccc1)N/N=C/c1ccco1` [A3.312], under setting [1], the IC50 is 87.5 µM. As to `Cc1nc(-c2ccc(Br)cc2)c(CC(=O)O)s1` [A3.313], the IC50 under setting [1] turned out to be 88.3 µM. As to `O=C(CNC(=O)c1ccccc1Br)N/N=C/c1ccco1` [A3.314], under setting [2], the IC50 was found to be 91.2 µM. As for `O=C(N/N=C/c1ccco1)c1ccccc1[N+](=O)[O-]` [A3.315], the IC50 under setting [1] was found to be 92.2 µM. For `COc1ccc(C2NCCS2)cc1OC` (stereo not drawn) [A3.316], the IC50 under setting [1] worked out at 92.1 µM. In the case of `COC(=O)CCC/C=C1/SC[C@@H](NC(=O)c2ccccc2)/C1=N/O` [A3.317], under setting [1], the IC50 was found to be 93.6 µM. `O=C(CNC(=O)c1ccccc1O)N/N=C/c1ccco1` [A3.318]: under setting [2], the IC50 was 98.8 µM.

Regarding `C#CCN1C(c2cnccn2)=NC(CC(C)C)C1C(=O)Nc1c(C)cccc1C` (stereo not drawn) [A3.319], under setting [2], the IC50 came out at 103 µM. As for `Cn1cccc1CC(=O)N/N=C\c1ccco1` [A3.320], the IC50 under setting [2] amounted to 113 µM. As to `COc1c(OCC(O)C(C)(C)O)ccc2c1N=C1OC=CC1C2OC` (stereo not drawn) [A3.321], the IC50 under setting [1] came to 125 µM. As to `CC1=C(C#N)C(=O)N(CCO)C(=O)/C1=C\c1ccc(-c2ccc(C)c(Cl)c2)o1` [A3.322], the IC50 under setting [1] was determined as 125 µM. With `COC(=O)c1c(N)ncn1-c1ccccc1` [A3.323], the IC50 under setting [2] is 126 µM. Turning to `O=C(N/N=C\C=C\c1ccco1)c1cc(-c2cccs2)n[nH]1` [A3.324], the IC50 under setting [2] was found to be 132 µM. On to `CC(=O)Oc1ccc2c(=O)c(-c3cnn(-c4ccccc4)c3)c(C(F)(F)F)oc2c1OC(C)=O` [A3.325], for which, under setting [2], the IC50 stood at 134 µM. Take `NCCCNC(=O)C1Cc2ncn(Cc3ccccc3[N+](=O)[O-])c2CN1Cc1ccccn1` (stereo not drawn) [A3.326]: the IC50 under setting [1] is 138 µM.

On to `CC(C(=O)N/N=C/c1ccco1)n1nnc2ccccc21` (stereo not drawn) [A3.327], for which the IC50 under setting [2] was 146 µM.

Turning to `COc1cccc(/C=N/NC(=O)c2ccn(C)n2)c1O` [A3.328], under setting [1], the IC50 was determined as 142 µM.

Turning to `O=C(Cc1cccs1)N/N=C\c1ccco1` [A3.329], the IC50 under setting [1] is 143 µM.

The values are drawn from patent US20070037752A1, “Novel alanyl-amino peptidase inhibitors for functionally influencing different cells and treating immunological, inflammatory, neuronal, and other diseases” (priority 2003, published 2007).
